Source: ChEMBL document CHEMBL1201862, “PubChem BioAssay data set” (2004)
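All cell lines were grown in 96-well plates and treated with compound for 48 hours. The concentration for 50% growth inhibition is given as GI50.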 Active and inactive are the calls of the source. Rule as the data show it: active = GI50 up to about 1.1 µM and inactive = higher.

Experiments:
Assay in all cases: NCI tumour cell line growth inhibition, 48 h
UACC-62 = tested on: UACC-62
SN12C = tested on: SN12C
ACHN = tested on: ACHN
HT-29 = tested on: HT-29
786-0 = tested on: 786-0
SF-295 = tested on: SF-295
HCT-116 = tested on: HCT-116
NCI-H522 = tested on: NCI-H522
K562 = tested on: K562
TK-10 = tested on: TK-10
LOX IMVI = tested on: LOX IMVI
KM12 = tested on: KM12
IGROV-1 = tested on: IGROV-1
A549 = tested on: A549
UO-31 = tested on: UO-31
RPMI-8226 = tested on: RPMI-8226

Measured: GI50

O=C1CSc2cc([N+](=O)[O-])ccc2N1
inactive: UACC-62 > 100 µM | SN12C > 100 µM | ACHN > 100 µM | HT-29 > 100 µM | 786-0 > 100 µM | SF-295 > 100 µM | HCT-116 > 100 µM | NCI-H522 > 100 µM | K562 > 100 µM | TK-10 > 100 µM | LOX IMVI > 100 µM | KM12 > 100 µM | IGROV-1 > 100 µM | A549 > 100 µM

Cc1ccc(S(=O)(=O)N/N=C/c2oc(-c3ccccc3Cl)c(-c3ccccc3Cl)c2[N+](=O)[O-])cc1
inactive: UACC-62 17.8 µM | SN12C 14.8 µM | ACHN 13.9 µM | HT-29 31.2 µM | 786-0 19.5 µM | SF-295 > 100 µM | UO-31 17.8 µM | HCT-116 6.37 µM | NCI-H522 6.07 µM | RPMI-8226 3.73 µM | K562 12.9 µM | TK-10 59 µM | KM12 > 100 µM | IGROV-1 24.9 µM | A549 24.2 µM

CCC(=O)c1c(NOC2OCC(OC(C)=O)C(OC(C)=O)C2OC(C)=O)nc(OC)n(C)c1=O (centres undefined)
inactive: UACC-62 > 100 µM | SN12C > 100 µM | ACHN > 100 µM | HT-29 > 100 µM | 786-0 > 100 µM | SF-295 > 100 µM | UO-31 > 100 µM | HCT-116 > 100 µM | RPMI-8226 > 100 µM | K562 > 100 µM | TK-10 > 100 µM | LOX IMVI > 100 µM | KM12 > 100 µM | IGROV-1 > 100 µM | A549 > 100 µM

CCCCCCC1=NOC(C(c2cc[nH]c2)N(C)[C@H](C(=O)OC)C(C)C)C1 (some centres undefined)
inactive: UACC-62 37.1 µM | SN12C 20.6 µM | ACHN 34.4 µM | HT-29 34 µM | 786-0 58.9 µM | SF-295 47.1 µM | UO-31 61.7 µM | HCT-116 34.4 µM | NCI-H522 16.1 µM | K562 39.2 µM | TK-10 35.4 µM | LOX IMVI 26.1 µM | KM12 21.9 µM | IGROV-1 65.8 µM | A549 62.5 µM

CCOC(=O)C12CCCC1(O)N(NC(=O)c1cccc(Cl)c1)C(C)=C2C(=O)OC (centres undefined)
inactive: UACC-62 > 100 µM | SN12C > 100 µM | ACHN > 100 µM | HT-29 > 100 µM | 786-0 > 100 µM | SF-295 72.4 µM | UO-31 > 100 µM | HCT-116 > 100 µM | NCI-H522 40.5 µM | RPMI-8226 56 µM | K562 96.6 µM | LOX IMVI > 100 µM | KM12 > 100 µM | IGROV-1 > 100 µM | A549 > 100 µM

C[C@@H](NS(=O)(=O)c1ccc(NC(=O)c2ccccc2)cc1)C(=O)O
inactive: UACC-62 > 100 µM | SN12C > 100 µM | ACHN > 100 µM | HT-29 > 100 µM | 786-0 > 100 µM | SF-295 > 100 µM | UO-31 > 100 µM | NCI-H522 > 100 µM | RPMI-8226 > 100 µM | K562 > 100 µM | TK-10 > 100 µM | LOX IMVI > 100 µM | KM12 > 100 µM | IGROV-1 > 100 µM | A549 > 100 µM

COC(=O)c1cccn1C(=O)n1cccc1
inactive: UACC-62 > 100 µM | SN12C > 100 µM | ACHN > 100 µM | HT-29 > 100 µM | 786-0 > 100 µM | SF-295 > 100 µM | UO-31 > 100 µM | HCT-116 > 100 µM | NCI-H522 > 100 µM | K562 > 100 µM | TK-10 > 100 µM | LOX IMVI > 100 µM | KM12 > 100 µM | IGROV-1 > 100 µM | A549 > 100 µM

CCN(CC)CC(=O)NC1c2ccccc2Oc2c(C)cccc21 (centres undefined)
inactive: UACC-62 > 100 µM | SN12C > 100 µM | ACHN 32.9 µM | HT-29 > 100 µM | 786-0 > 100 µM | UO-31 23.2 µM | HCT-116 95.5 µM | RPMI-8226 78.7 µM | K562 53.1 µM | TK-10 > 100 µM | LOX IMVI > 100 µM | IGROV-1 > 100 µM | A549 > 100 µM

CC(=O)C1CCN(c2ccccc2)C1 (centres undefined)
inactive: UACC-62 > 100 µM | SN12C > 100 µM | ACHN > 100 µM | HT-29 > 100 µM | 786-0 > 100 µM | SF-295 > 100 µM | UO-31 > 100 µM | HCT-116 > 100 µM | NCI-H522 > 100 µM | K562 > 100 µM | TK-10 > 100 µM | KM12 > 100 µM | IGROV-1 > 100 µM | A549 > 100 µM

O=CC1=CCC2c3[nH]c4ccccc4c3CCN2C1 (centres undefined)
inactive: UACC-62 93.8 µM | SN12C 102 µM | ACHN 219 µM | HT-29 101 µM | 786-0 141 µM | SF-295 106 µM | HCT-116 61.7 µM | NCI-H522 325 µM | RPMI-8226 112 µM | K562 130 µM | TK-10 259 µM | LOX IMVI 58.7 µM | KM12 73.1 µM | IGROV-1 125 µM | A549 > 396 µM

CC#CC(=O)Nc1ccccc1CC(c1c[nH]c2ccccc12)c1c[nH]c2ccccc12
inactive: UACC-62 13.3 µM | SN12C 15.1 µM | HT-29 16.2 µM | 786-0 18.3 µM | SF-295 20.3 µM | UO-31 7.19 µM | NCI-H522 > 10 µM | RPMI-8226 8.32 µM | K562 16.1 µM | TK-10 29.9 µM | LOX IMVI 15.2 µM | KM12 22.3 µM | IGROV-1 16.4 µM | A549 20.5 µM

O=S(O)CCCCSSCCCCS(=O)(=O)S
inactive: UACC-62 18 µM | SN12C 71 µM | ACHN 72.6 µM | HT-29 38.6 µM | 786-0 > 100 µM | SF-295 35.5 µM | UO-31 51.3 µM | HCT-116 > 100 µM | NCI-H522 19.3 µM | K562 32.1 µM | TK-10 42.6 µM | LOX IMVI 27.4 µM | KM12 67.6 µM | IGROV-1 > 100 µM | A549 40.7 µM

COC(=O)CC(C(C(C)=O)C(=O)OCc1ccccc1)N1C(=O)OCC1c1ccccc1 (centres undefined)
inactive: UACC-62 44.2 µM | SN12C > 100 µM | ACHN > 100 µM | HT-29 > 100 µM | 786-0 > 100 µM | SF-295 > 100 µM | UO-31 44.4 µM | HCT-116 > 100 µM | RPMI-8226 51.5 µM | K562 > 100 µM | TK-10 > 100 µM | LOX IMVI > 100 µM | IGROV-1 50 µM | A549 62.8 µM

COC(=O)C1CC(=O)O[C@H]1c1ccc(OC)c(OC)c1 (some centres undefined)
inactive: UACC-62 > 100 µM | SN12C > 100 µM | ACHN > 100 µM | HT-29 > 100 µM | 786-0 > 100 µM | SF-295 > 100 µM | UO-31 > 100 µM | HCT-116 > 100 µM | RPMI-8226 > 100 µM | K562 > 100 µM | TK-10 > 100 µM | LOX IMVI > 100 µM | KM12 > 100 µM | IGROV-1 > 100 µM | A549 > 100 µM
